Molecules are shown by their SMILES.

What all share (experiment): KINOMEscan (ScanMAX) kinase profiling
What all share (assay type): binding

For assay [1], the target named is T1, panel of 468 kinases (Homo sapiens, UniProt Q16816).
T1 construct: purchased KINOMEscan (ScanMAX) service
The settings on record: PHKG1; 1 μM; read-out: % control.

In assay [2] the target is T2, panel of 468 kinases (Homo sapiens, UniProt P30291).
T2 construct: purchased KINOMEscan (ScanMAX) service
The settings on record: WEE1; 1 μM; read-out: % control.

Assay [3] deals with T3, panel of 468 kinases (Homo sapiens, UniProt Q8TBX8).
T3 construct: purchased KINOMEscan (ScanMAX) service
T3 sequence (Q8TBX8 1-421): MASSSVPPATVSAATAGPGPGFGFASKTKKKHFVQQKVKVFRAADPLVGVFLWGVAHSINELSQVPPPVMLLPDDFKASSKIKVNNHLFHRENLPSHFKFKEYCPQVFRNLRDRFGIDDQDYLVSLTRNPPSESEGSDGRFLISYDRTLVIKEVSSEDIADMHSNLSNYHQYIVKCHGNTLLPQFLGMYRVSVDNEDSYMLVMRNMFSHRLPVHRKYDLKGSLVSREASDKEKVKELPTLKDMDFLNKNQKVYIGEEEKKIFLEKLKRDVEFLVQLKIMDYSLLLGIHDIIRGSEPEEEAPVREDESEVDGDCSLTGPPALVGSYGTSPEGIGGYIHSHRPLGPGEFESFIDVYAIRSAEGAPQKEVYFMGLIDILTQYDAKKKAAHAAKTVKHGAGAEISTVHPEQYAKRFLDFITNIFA
Conditions: PIP5K2C; 1 μM; read-out: % control.

The target in assay [4] is T4, panel of 468 kinases (Homo sapiens, UniProt Q8IVH8).
T4 construct: purchased KINOMEscan (ScanMAX) service
T4 sequence (Q8IVH8 1-894): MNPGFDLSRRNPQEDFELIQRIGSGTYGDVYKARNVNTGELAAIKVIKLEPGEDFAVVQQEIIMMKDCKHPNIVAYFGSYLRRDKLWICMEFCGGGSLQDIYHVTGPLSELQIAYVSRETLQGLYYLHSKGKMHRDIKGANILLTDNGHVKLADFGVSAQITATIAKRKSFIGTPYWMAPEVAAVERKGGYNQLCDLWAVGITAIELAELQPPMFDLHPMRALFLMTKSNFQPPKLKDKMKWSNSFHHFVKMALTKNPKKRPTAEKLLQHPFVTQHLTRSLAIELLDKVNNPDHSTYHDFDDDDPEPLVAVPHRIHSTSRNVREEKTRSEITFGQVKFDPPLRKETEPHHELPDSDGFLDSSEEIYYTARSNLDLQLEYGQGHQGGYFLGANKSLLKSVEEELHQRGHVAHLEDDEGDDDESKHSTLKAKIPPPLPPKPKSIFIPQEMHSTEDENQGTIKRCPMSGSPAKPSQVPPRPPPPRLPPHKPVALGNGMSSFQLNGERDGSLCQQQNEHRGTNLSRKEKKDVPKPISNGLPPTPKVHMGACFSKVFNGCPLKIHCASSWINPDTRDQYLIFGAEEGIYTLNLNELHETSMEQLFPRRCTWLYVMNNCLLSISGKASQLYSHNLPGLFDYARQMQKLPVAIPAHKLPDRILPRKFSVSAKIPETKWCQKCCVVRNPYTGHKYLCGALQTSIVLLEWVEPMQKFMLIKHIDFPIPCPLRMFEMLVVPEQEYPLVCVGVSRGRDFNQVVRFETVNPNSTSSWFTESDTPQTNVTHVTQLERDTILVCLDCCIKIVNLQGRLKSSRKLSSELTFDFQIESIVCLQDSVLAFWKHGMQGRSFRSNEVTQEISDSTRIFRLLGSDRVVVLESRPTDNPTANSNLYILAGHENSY
The settings on record: MAP4K3; 1 μM; read-out: % control.

In assay [5] the target is T5, panel of 468 kinases (Homo sapiens, UniProt Q12851).
T5 construct: purchased KINOMEscan (ScanMAX) service
T5 sequence (Q12851 1-820): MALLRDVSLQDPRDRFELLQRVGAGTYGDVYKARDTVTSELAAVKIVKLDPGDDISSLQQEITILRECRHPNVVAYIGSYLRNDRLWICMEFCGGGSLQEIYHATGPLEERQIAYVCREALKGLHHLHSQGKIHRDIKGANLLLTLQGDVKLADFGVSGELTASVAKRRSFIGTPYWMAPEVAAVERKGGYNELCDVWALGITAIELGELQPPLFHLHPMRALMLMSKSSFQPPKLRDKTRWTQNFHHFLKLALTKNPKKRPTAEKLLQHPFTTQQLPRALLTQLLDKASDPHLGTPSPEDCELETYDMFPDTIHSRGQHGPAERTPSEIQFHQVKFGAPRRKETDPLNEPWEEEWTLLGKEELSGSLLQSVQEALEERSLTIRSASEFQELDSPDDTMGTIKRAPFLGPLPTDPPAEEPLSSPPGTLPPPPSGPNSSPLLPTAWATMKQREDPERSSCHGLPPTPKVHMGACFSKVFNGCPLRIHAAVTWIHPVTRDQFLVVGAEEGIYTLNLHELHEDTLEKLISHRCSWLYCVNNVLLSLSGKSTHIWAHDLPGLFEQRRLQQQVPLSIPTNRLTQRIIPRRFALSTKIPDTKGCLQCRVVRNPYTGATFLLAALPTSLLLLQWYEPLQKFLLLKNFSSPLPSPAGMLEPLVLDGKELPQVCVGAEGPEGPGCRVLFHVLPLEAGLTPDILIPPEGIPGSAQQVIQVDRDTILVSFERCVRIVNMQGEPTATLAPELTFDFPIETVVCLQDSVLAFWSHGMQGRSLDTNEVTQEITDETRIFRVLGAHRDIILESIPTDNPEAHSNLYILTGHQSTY
The settings on record: MAP4K2; 1 μM; read-out: % control.

T1 sequence (Q16816 whole entry): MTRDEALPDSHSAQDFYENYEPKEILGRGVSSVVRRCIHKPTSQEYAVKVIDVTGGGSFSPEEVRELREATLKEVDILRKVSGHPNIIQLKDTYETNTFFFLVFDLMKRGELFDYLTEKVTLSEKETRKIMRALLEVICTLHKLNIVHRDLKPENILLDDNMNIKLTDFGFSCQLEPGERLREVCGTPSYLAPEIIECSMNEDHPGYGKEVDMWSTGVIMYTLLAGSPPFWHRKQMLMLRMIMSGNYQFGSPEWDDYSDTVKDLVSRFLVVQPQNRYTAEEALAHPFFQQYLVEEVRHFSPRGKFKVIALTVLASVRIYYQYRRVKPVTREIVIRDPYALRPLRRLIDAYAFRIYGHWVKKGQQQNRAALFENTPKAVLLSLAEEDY
T2 sequence (P30291 whole entry): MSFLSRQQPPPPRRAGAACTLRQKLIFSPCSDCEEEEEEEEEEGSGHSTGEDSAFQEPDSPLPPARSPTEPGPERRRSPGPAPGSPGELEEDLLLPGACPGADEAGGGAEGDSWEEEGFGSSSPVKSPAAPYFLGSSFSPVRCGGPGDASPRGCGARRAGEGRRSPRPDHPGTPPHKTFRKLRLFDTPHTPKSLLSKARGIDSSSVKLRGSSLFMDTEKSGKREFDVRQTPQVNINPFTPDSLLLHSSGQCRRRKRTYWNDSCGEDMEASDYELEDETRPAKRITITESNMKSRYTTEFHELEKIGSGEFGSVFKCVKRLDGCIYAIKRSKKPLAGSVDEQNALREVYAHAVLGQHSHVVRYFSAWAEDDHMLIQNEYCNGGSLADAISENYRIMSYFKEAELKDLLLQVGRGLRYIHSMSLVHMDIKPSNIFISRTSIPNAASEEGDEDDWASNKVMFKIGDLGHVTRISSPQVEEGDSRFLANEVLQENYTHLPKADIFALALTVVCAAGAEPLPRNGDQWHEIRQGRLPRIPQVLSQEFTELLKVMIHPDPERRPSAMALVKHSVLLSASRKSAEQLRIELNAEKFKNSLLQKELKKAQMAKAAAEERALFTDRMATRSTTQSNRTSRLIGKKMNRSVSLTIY

`CNc1nc(Nc2ccc(S(=O)(=O)N3CCC(N4CCOCC4)CC3)cc2OC)nc2[nH]cc(Cl)c12` [Compound 12, 5-chloro-N2-(2-methoxy-4-((4-morpholinopiperidin-1-yl)sulfonyl)phenyl)-N4-methyl-7H-pyrrolo[2,3-d]pyrimidine-2,4-diamine]: the remaining binding at 1 µM worked out at 25% at panel of 468 kinases [1]; 78% at panel of 468 kinases [2]; 28% on panel of 468 kinases [3]; 98% at panel of 468 kinases [4]; 61% at panel of 468 kinases [5].

Turning to `CNc1nc(Nc2ccc(P3(=O)CCN(C4CCOCC4)CC3)cc2OC)nc2[nH]cc(Cl)c12` [Compound 77, 4-(4-((5-chloro-4-(methylamino)-7H-pyrrolo[2,3-d]pyrimidin-2-yl)amino)-3-methoxyphenyl)-1-(tetrahydro-2H-pyran-4-yl)-1,4-azaphosphinane 4-oxide], the remaining binding at 1 µM at panel of 468 kinases [1] came to 8.4%; on panel of 468 kinases [2], 93%; at panel of 468 kinases [3], 39%; at panel of 468 kinases [4], 100%; at panel of 468 kinases [5], 39%.

For `CNc1nc(Nc2ccc(C(=O)N3CCC(N4CCOCC4)CC3)c3c2OCO3)nc2[nH]cc(Cl)c12` [Compound 75, (7-((5-chloro-4-(methylamino)-7H-pyrrolo[2,3-d]pyrimidin-2-yl)amino)benzo[d][1,3]dioxol-4-yl)(4-morpholinopiperidin-1-yl)methanone], the remaining binding at 1 µM on panel of 468 kinases [1] was 14%; on panel of 468 kinases [2], 95%; at panel of 468 kinases [3], 0%; on panel of 468 kinases [4] it was 81%; on panel of 468 kinases [5], 6.2%.

The values above are taken from US12479847B2 (DANA-FARBER CANCER INSTITUTE, INC., priority 2019, dated 2025).
